Experimental data: PubChem BioAssay AID248 (DTP/NCI, 2004)
Values joined by “and” are separate entries in the source; they are usually repeats but may differ in a detail not shown here. Identical values can stand only once. Inconclusive results and toxic doses are left out. Rule as the data show it: active = T/C of 150% or more; inactive = T/C below 125%.

Test system: L1210 leukemia ip in BDF1 mice, survival T/C
Assay: NCI In Vivo Anticancer Drug Screen. Data for tumor model L1210 Leukemia (intraperitoneal) in B6D2F1 (BDF1) mice
Details: endpoint: mean survival time, higher = longer survival
Outline: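 Tumor cells were implanted, animals were treated, and survival was followed. The result divides the treated measurement by the vehicle-control measurement.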

[1] = dose: 100.0 mg/kg/injection, schedule: Q01DX001 (ip), vehicle: other
[2] = dose: 200.0 mg/kg/injection, schedule: Q01DX001 (ip), vehicle: other
[3] = dose: 400.0 mg/kg/injection, schedule: Q01DX001 (ip), vehicle: other
[4] = dose: 100.0 mg/kg/injection, schedule: Q01DX001 (ip), vehicle: Klucel (hydroxypropylcellulose) (HPC)
[5] = dose: 200.0 mg/kg/injection, schedule: Q01DX001 (ip), vehicle: Klucel (hydroxypropylcellulose) (HPC)
[6] = dose: 400.0 mg/kg/injection, schedule: Q01DX001 (ip), vehicle: Klucel (hydroxypropylcellulose) (HPC)
[7] = dose: 100.0 mg/kg/injection, schedule: Q01DX001 (ip), vehicle: saline
[8] = dose: 100.0 mg/kg/injection, schedule: Q01DX001 (ip), vehicle: carboxymethylcellulose (CMC)
[9] = dose: 100.0 mg/kg/injection, schedule: Q01DX009 (ip), vehicle: Klucel (hydroxypropylcellulose) (HPC)
[10] = dose: 100.0 mg/kg/injection, schedule: Q04DX003 (ip), vehicle: Klucel (hydroxypropylcellulose) (HPC)
[11] = dose: 200.0 mg/kg/injection, schedule: Q01DX009 (ip), vehicle: Klucel (hydroxypropylcellulose) (HPC)
[12] = dose: 200.0 mg/kg/injection, schedule: Q04DX003 (ip), vehicle: Klucel (hydroxypropylcellulose) (HPC)
[13] = dose: 400.0 mg/kg/injection, schedule: Q04DX003 (ip), vehicle: Klucel (hydroxypropylcellulose) (HPC)
[14] = dose: 25.0 mg/kg/injection, schedule: Q04DX003 (ip), vehicle: Klucel (hydroxypropylcellulose) (HPC)
[15] = dose: 50.0 mg/kg/injection, schedule: Q04DX003 (ip), vehicle: Klucel (hydroxypropylcellulose) (HPC)
[16] = dose: 400.0 mg/kg/injection, schedule: Q01DX009 (ip), vehicle: Klucel (hydroxypropylcellulose) (HPC)

Measured: T/C

CCOC(=O)C1CC(C(=O)OCC)c2nc3ccccc3nc21 (centres undefined)
inactive: dose: 50.0 mg/kg/injection, schedule: Q01DX001 (ip), vehicle: other 88 % of control | [1] 92 % of control and 86 % of control | [2] 89 % of control | [3] 92 % of control

O=Nc1ccc(O)cc1Br
inactive: [4] 100 % of control | [5] 97 % of control | [6] 100 % of control and 92 % of control

NC(=S)N1CCCCC1
inactive: [7] 98 % of control | dose: 200.0 mg/kg/injection, schedule: Q01DX001 (ip), vehicle: saline 96 % of control

O=C1c2ccccc2-c2cccc([N+](=O)[O-])c21
inactive: [8] 97 % of control | dose: 200.0 mg/kg/injection, schedule: Q01DX001 (ip), vehicle: carboxymethylcellulose (CMC) 92 % of control | dose: 400.0 mg/kg/injection, schedule: Q01DX001 (ip), vehicle: carboxymethylcellulose (CMC) 97 % of control

CCc1ccccc1NC(=O)Nc1ccc(OC)cc1
inactive: dose: 25.0 mg/kg/injection, schedule: Q01DX009 (ip), vehicle: Klucel (hydroxypropylcellulose) (HPC) 90 % of control | dose: 50.0 mg/kg/injection, schedule: Q01DX009 (ip), vehicle: Klucel (hydroxypropylcellulose) (HPC) 95 % of control | [9] 93 % of control | [10] 94 % of control | [11] 86 % of control | [12] 91 % of control | [13] 96 % of control

CCC1=C/C(=C\c2ccc3c(c2)OCO3)C(=O)S1
inactive: dose: 200.0 mg/kg/injection, schedule: Q04DX002 (ip), vehicle: saline with Tween-80 89 % of control | dose: 400.0 mg/kg/injection, schedule: Q04DX002 (ip), vehicle: saline with Tween-80 89 % of control

Cc1cccc(C)c1Oc1ccc([N+](=O)[O-])cc1[N+](=O)[O-]
inactive: [4] 105 % of control | [5] 112 % of control | [6] 117 % of control

Cc1ccccc1N=Nc1c(O)[nH]c2ccccc12
inactive: dose: 100.0 mg/kg/injection, schedule: Q01DX001 (ip), vehicle: acetone 93 % of control | dose: 200.0 mg/kg/injection, schedule: Q01DX001 (ip), vehicle: acetone 95 % of control | dose: 400.0 mg/kg/injection, schedule: Q01DX001 (ip), vehicle: acetone 96 % of control

CCOC(=O)C1(c2cc(NS(=O)(=O)c3ccccc3)ccc2O)CCCCC1=O (centres undefined)
inactive: dose: 50.0 mg/kg/injection, schedule: Q01DX001 (ip), vehicle: saline sonified 97 % of control | dose: 100.0 mg/kg/injection, schedule: Q01DX001 (ip), vehicle: saline sonified 93 % of control | dose: 200.0 mg/kg/injection, schedule: Q01DX001 (ip), vehicle: saline sonified 94 % of control

O=S(=O)(F)c1ccccc1S(=O)(=O)Cl
inactive: [14] 97 % of control | [15] 92 % of control | [8] 95 % of control | [10] 92 % of control

NC(=S)c1[nH]cnc1N
inactive: dose: 27.0 mg/kg/injection, schedule: Q01DX015 (ip), vehicle: saline 95 % of control | dose: 40.0 mg/kg/injection, schedule: Q01DX015 (ip), vehicle: saline 93 % of control | dose: 60.0 mg/kg/injection, schedule: Q01DX015 (ip), vehicle: saline 101 % of control | [1] 98 % of control | [7] 110 % of control | [2] 95 % of control | [3] 103 % of control

CCOC(=O)CN1CCC(C2(c3cc4ccccc4[nH]3)OCCO2)CC1
inactive: dose: 12.0 mg/kg/injection, schedule: Q04DX003 (ip), vehicle: Klucel (hydroxypropylcellulose) (HPC) 91 % of control | [14] 89 % of control | [15] 100 % of control | [9] 97 % of control | [11] 103 % of control | [16] 101 % of control

CN1CSCC1C(=O)O (centres undefined)
inactive: dose: 100.0 mg/kg/injection, schedule: Q04DX003 (ip), vehicle: saline 94 % of control | dose: 200.0 mg/kg/injection, schedule: Q04DX003 (ip), vehicle: saline 96 % of control

COc1ccc(C(O)C(C)C(O)(C(F)(F)F)C(F)(F)F)cc1 (centres undefined)
inactive: [4] 98 % of control | [10] 96 % of control | [5] 101 % of control | [12] 98 % of control | [6] 111 % of control | [13] 93 % of control

O=[N+]([O-])c1ccc(CC(O)c2ccccc2)cc1 (centres undefined)
inactive: [15] 105 % of control | [9] 111 % of control | [10] 102 % of control | [11] 107 % of control | [12] 105 % of control | [16] 103 % of control | [13] 105 % of control

COc1cc2c(c(OC)c1OC)-c1ccc(SC)c(=O)cc1C(NC1OC(CO)C(O)C(O)C1O)CC2 (centres undefined)
inactive: dose: 12.5 mg/kg/injection, schedule: Q01DX005 (ip), vehicle: saline 100 % of control | dose: 25.0 mg/kg/injection, schedule: Q01DX005 (ip), vehicle: saline 100 % of control | dose: 50.0 mg/kg/injection, schedule: Q01DX005 (ip), vehicle: saline 112 % of control and 119 % of control | dose: 100.0 mg/kg/injection, schedule: Q01DX005 (ip), vehicle: saline 116 % of control

O=[N+]([O-])C(Cl)(Cl)C(Cl)(Cl)[N+](=O)[O-]
inactive: dose: 2.5 mg/kg/injection, schedule: Q01DX009 (ip), vehicle: other 97 % of control | dose: 2.5 mg/kg/injection, schedule: Q04DX003 (ip), vehicle: other 100 % of control | dose: 5.0 mg/kg/injection, schedule: Q01DX001 (ip), vehicle: saline 94 % of control | dose: 5.0 mg/kg/injection, schedule: Q01DX009 (ip), vehicle: other 95 % of control | dose: 5.0 mg/kg/injection, schedule: Q04DX003 (ip), vehicle: other 102 % of control | dose: 10.0 mg/kg/injection, schedule: Q01DX001 (ip), vehicle: saline 94 % of control | dose: 10.0 mg/kg/injection, schedule: Q01DX009 (ip), vehicle: other 90 % of control | dose: 10.0 mg/kg/injection, schedule: Q04DX003 (ip), vehicle: other 88 % of control | dose: 20.0 mg/kg/injection, schedule: Q01DX001 (ip), vehicle: saline 92 % of control | dose: 40.0 mg/kg/injection, schedule: Q01DX001 (ip), vehicle: saline 86 % of control | dose: 80.0 mg/kg/injection, schedule: Q01DX001 (ip), vehicle: saline 100 % of control

CSc1ncnc2c1nnn2C1OC(COC(=O)c2ccccc2)C(OC(=O)c2ccccc2)C1OC(=O)c1ccccc1 (centres undefined)
inactive: dose: 50.0 mg/kg/injection, schedule: Q01DX009 (ip), vehicle: gum acacia 93 % of control | dose: 100.0 mg/kg/injection, schedule: Q01DX001 (ip), vehicle: gum acacia 92 % of control | dose: 100.0 mg/kg/injection, schedule: Q01DX009 (ip), vehicle: gum acacia 89 % of control | dose: 200.0 mg/kg/injection, schedule: Q01DX001 (ip), vehicle: gum acacia 87 % of control

NC(=O)NC1CCCCCC1
inactive: dose: 100.0 mg/kg/injection, schedule: Q04DX003 (ip), vehicle: saline with Tween-80 94 % of control | dose: 200.0 mg/kg/injection, schedule: Q04DX003 (ip), vehicle: saline with Tween-80 91 % of control | dose: 400.0 mg/kg/injection, schedule: Q04DX003 (ip), vehicle: saline with Tween-80 91 % of control
